Tests used:
[1] = tested on: Diglycosidase derived from P. multicolor; test: Reactivity toward various isoflavone glycosides (HPLC); format: biochemical, Penicillium multicolor; set-up: glucoside / aglycon: unit not given here; conditions: 55 °C, pH 4.0
Method in brief: (§1)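 Aglycone liberation was measured by reversed-phase HPLC (260 nm, calibration-curve quantitation) after ethanol extraction at 0, 1, 3 and 6 h. Reactions ran at 55° C, pH 4.0 (20 mM acetate), with each glycoside (from 2 mM methanol stock) and 0.75 AU/mL enzyme solution.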

[2] = tested on: β-Glucosidase derived from A. niger; test: as above; format: biochemical, Aspergillus niger; set-up: glucoside / aglycon: unit not given here; conditions: 55 °C, pH 4.0
Method in brief: as §1

[3] = tested on: Crude diglycosidase; test: Examination of substrate concentration in the conversion into isoflavone aglycons by diglycosidase using soybean materials; format: biochemical, Penicillium multicolor IAM7153;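 further: percent of the isoflavone family total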
Method in brief: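 Reaction at 55° C, shaken, pH 4.0 (20 mM acetate), using crude diglycosidase from a 1.88 AU/mL enzyme solution on soy flour, soymilk, defatted soybean or soy protein concentrate at 2, 5, 10, 20 or 30% (w/v). Isoflavone aglycons quantified by HPLC of ethanol extracts at 0, 1, 3, 6 h.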

aglycon ([1]; Reaction time 0 h): 0
glucoside ([1]; Reaction time 0 h): 100
aglycon ([1]; Reaction time 1 h): 74.2
glucoside ([1]; Reaction time 1 h): 25.8
aglycon ([1]; Reaction time 3 h): 82.1
glucoside ([1]; Reaction time 3 h): 17.9
aglycon ([1]; Reaction time 6 h): 82.3
glucoside ([1]; Reaction time 6 h): 17.7
aglycon ([2]; Reaction time 0 h): 0
glucoside ([2]; Reaction time 0 h): 100
aglycon ([2]; Reaction time 1 h): 3.1
glucoside ([2]; Reaction time 1 h): 96.9
aglycon ([2]; Reaction time 3 h): 7
glucoside ([2]; Reaction time 3 h): 93
aglycon ([2]; Reaction time 6 h): 12.1
glucoside ([2]; Reaction time 6 h): 87.9
Decomposition efficiency: ratio of each glycoside/aglycon within its isoflavone family ([3]; concentrated soybean protein, substrate concentration 2%, heat treatment of enzyme no, reaction time 0 h): not detected
Decomposition efficiency: ratio of each glycoside/aglycon within its isoflavone family ([3]; concentrated soybean protein, substrate concentration 2%, heat treatment of enzyme no, reaction time 1 h): not detected
Decomposition efficiency: ratio of each glycoside/aglycon within its isoflavone family ([3]; concentrated soybean protein, substrate concentration 2%, heat treatment of enzyme no, reaction time 3 h): not detected
Decomposition efficiency: ratio of each glycoside/aglycon within its isoflavone family ([3]; concentrated soybean protein, substrate concentration 2%, heat treatment of enzyme no, reaction time 6 h): not detected
Decomposition efficiency: ratio of each glycoside/aglycon within its isoflavone family ([3]; concentrated soybean protein, substrate concentration 2%, heat treatment of enzyme yes, reaction time 6 h): not detected
Decomposition efficiency: ratio of each glycoside/aglycon within its isoflavone family ([3]; concentrated soybean protein, substrate concentration 5%, heat treatment of enzyme no, reaction time 0 h): not detected
Decomposition efficiency: ratio of each glycoside/aglycon within its isoflavone family ([3]; concentrated soybean protein, substrate concentration 5%, heat treatment of enzyme no, reaction time 1 h): not detected
Decomposition efficiency: ratio of each glycoside/aglycon within its isoflavone family ([3]; concentrated soybean protein, substrate concentration 5%, heat treatment of enzyme no, reaction time 3 h): not detected
Decomposition efficiency: ratio of each glycoside/aglycon within its isoflavone family ([3]; concentrated soybean protein, substrate concentration 5%, heat treatment of enzyme no, reaction time 6 h): not detected
Decomposition efficiency: ratio of each glycoside/aglycon within its isoflavone family ([3]; concentrated soybean protein, substrate concentration 5%, heat treatment of enzyme yes, reaction time 6 h): not detected
Decomposition efficiency: ratio of each glycoside/aglycon within its isoflavone family ([3]; concentrated soybean protein, substrate concentration 10%, heat treatment of enzyme no, reaction time 0 h): not detected
Decomposition efficiency: ratio of each glycoside/aglycon within its isoflavone family ([3]; concentrated soybean protein, substrate concentration 10%, heat treatment of enzyme no, reaction time 1 h): not detected
Decomposition efficiency: ratio of each glycoside/aglycon within its isoflavone family ([3]; concentrated soybean protein, substrate concentration 10%, heat treatment of enzyme no, reaction time 3 h): not detected
Decomposition efficiency: ratio of each glycoside/aglycon within its isoflavone family ([3]; concentrated soybean protein, substrate concentration 10%, heat treatment of enzyme no, reaction time 6 h): not detected
Decomposition efficiency: ratio of each glycoside/aglycon within its isoflavone family ([3]; concentrated soybean protein, substrate concentration 10%, heat treatment of enzyme yes, reaction time 6 h): not detected
Decomposition efficiency: ratio of each glycoside/aglycon within its isoflavone family ([3]; concentrated soybean protein, substrate concentration 20%, heat treatment of enzyme no, reaction time 0 h): not detected
Decomposition efficiency: ratio of each glycoside/aglycon within its isoflavone family ([3]; concentrated soybean protein, substrate concentration 20%, heat treatment of enzyme no, reaction time 1 h): not detected
Decomposition efficiency: ratio of each glycoside/aglycon within its isoflavone family ([3]; concentrated soybean protein, substrate concentration 20%, heat treatment of enzyme no, reaction time 3 h): not detected
Decomposition efficiency: ratio of each glycoside/aglycon within its isoflavone family ([3]; concentrated soybean protein, substrate concentration 20%, heat treatment of enzyme no, reaction time 6 h): not detected
Decomposition efficiency: ratio of each glycoside/aglycon within its isoflavone family ([3]; concentrated soybean protein, substrate concentration 20%, heat treatment of enzyme yes, reaction time 6 h): not detected
Decomposition efficiency: ratio of each glycoside/aglycon within its isoflavone family ([3]; concentrated soybean protein, substrate concentration 30%, heat treatment of enzyme no, reaction time 0 h): not detected
Decomposition efficiency: ratio of each glycoside/aglycon within its isoflavone family ([3]; concentrated soybean protein, substrate concentration 30%, heat treatment of enzyme no, reaction time 1 h): not detected
Decomposition efficiency: ratio of each glycoside/aglycon within its isoflavone family ([3]; concentrated soybean protein, substrate concentration 30%, heat treatment of enzyme no, reaction time 3 h): not detected
Decomposition efficiency: ratio of each glycoside/aglycon within its isoflavone family ([3]; concentrated soybean protein, substrate concentration 30%, heat treatment of enzyme no, reaction time 6 h): not detected
Decomposition efficiency: ratio of each glycoside/aglycon within its isoflavone family ([3]; concentrated soybean protein, substrate concentration 30%, heat treatment of enzyme yes, reaction time 6 h): not detected
Decomposition efficiency: ratio of each glycoside/aglycon within its isoflavone family ([3]; roasted soy flour, substrate concentration 2%, heat treatment of enzyme no, reaction time 0 h): not detected
Decomposition efficiency: ratio of each glycoside/aglycon within its isoflavone family ([3]; roasted soy flour, substrate concentration 2%, heat treatment of enzyme no, reaction time 1 h): not detected
Decomposition efficiency: ratio of each glycoside/aglycon within its isoflavone family ([3]; roasted soy flour, substrate concentration 2%, heat treatment of enzyme no, reaction time 3 h): not detected
Decomposition efficiency: ratio of each glycoside/aglycon within its isoflavone family ([3]; roasted soy flour, substrate concentration 2%, heat treatment of enzyme no, reaction time 6 h): not detected
Decomposition efficiency: ratio of each glycoside/aglycon within its isoflavone family ([3]; roasted soy flour, substrate concentration 2%, heat treatment of enzyme yes, reaction time 6 h): not detected
Decomposition efficiency: ratio of each glycoside/aglycon within its isoflavone family ([3]; roasted soy flour, substrate concentration 5%, heat treatment of enzyme no, reaction time 0 h): not detected
Decomposition efficiency: ratio of each glycoside/aglycon within its isoflavone family ([3]; roasted soy flour, substrate concentration 5%, heat treatment of enzyme no, reaction time 1 h): not detected
Decomposition efficiency: ratio of each glycoside/aglycon within its isoflavone family ([3]; roasted soy flour, substrate concentration 5%, heat treatment of enzyme no, reaction time 3 h): not detected
Decomposition efficiency: ratio of each glycoside/aglycon within its isoflavone family ([3]; roasted soy flour, substrate concentration 5%, heat treatment of enzyme no, reaction time 6 h): not detected
Decomposition efficiency: ratio of each glycoside/aglycon within its isoflavone family ([3]; roasted soy flour, substrate concentration 5%, heat treatment of enzyme yes, reaction time 6 h): not detected
Decomposition efficiency: ratio of each glycoside/aglycon within its isoflavone family ([3]; roasted soy flour, substrate concentration 10%, heat treatment of enzyme no, reaction time 0 h): not detected
Decomposition efficiency: ratio of each glycoside/aglycon within its isoflavone family ([3]; roasted soy flour, substrate concentration 10%, heat treatment of enzyme no, reaction time 1 h): not detected
Structure (SMILES): O=C(O)CC(=O)OC[C@H]1O[C@@H](Oc2cc(O)c3c(=O)c(-c4ccc(O)cc4)coc3c2)[C@H](O)[C@@H](O)[C@@H]1O [malonylgenistin, 6″-O-malonylgenistin]
